From patent publication US7514452B2, “2-furancarboxylic acid hydrazides and pharmaceutical compositions containing the same” (Dainippon Pharmaceutical Co., Ltd, priority 2002, dated 2009) come the findings set out here.

Assay [1] concerns the target glucagon receptor (Rattus norvegicus, UniProt P30082). Description: Experiment for glucagon binding inhibition, rat hepatic membrane (125I-glucagon). Conditions: male SD rat hepatic membrane, 125I-glucagon 50 pM, 25° C. for 30 minutes; read-out: Glucagon binding inhibitory activity IC50 (nM) Rat. The procedure: (§1) The preparation of membrane from mouse and rat livers was carried out according to the method described in Bioorg. Med. Chem. Lett. 1992, 12, 915-918 in this experiment and ^125I-glucagon binding activity was measured with these membranes as glucagon receptor's samples. Livers were removed from male SD rats (about 250 g body weight per rat) and male ddY mice (about 30 g body weight per mouse). […] The homogenate was centrifuged for 15 minutes at 30,000×g. […] The precipitaion thus obtained was used as a hepatic membrane sample. […] The mixture was incubated at 25° C. for 30 minutes. […] The filter was washed 3 times with 50 mM Tris-HCl buffer (pH 7.2), and the radioactivity of the filter was measured by a γ counter (ARC-360, Aloka Co., Ltd.). […] Each experiment was carried out in duplicate. […] The concentration at 50% inhibition of binding (IC50) was calculated using a pseudo Hill plot.

Assay [2] has as its target glucagon receptor (Mus musculus, UniProt Q61606). Nature of the assay: Experiment for glucagon binding inhibition, mouse hepatic membrane (125I-glucagon). Conditions: male ddY mouse hepatic membrane, 125I-glucagon 50 pM, 25° C. for 30 minutes; read-out: Glucagon binding inhibitory activity IC50 (nM) Mouse. The procedure: as §1

The term IC50 denotes the concentration that gives 50% inhibition.

Chain of glucagon receptor (Mus musculus, UniProt Q61606) (Q61606 27-485): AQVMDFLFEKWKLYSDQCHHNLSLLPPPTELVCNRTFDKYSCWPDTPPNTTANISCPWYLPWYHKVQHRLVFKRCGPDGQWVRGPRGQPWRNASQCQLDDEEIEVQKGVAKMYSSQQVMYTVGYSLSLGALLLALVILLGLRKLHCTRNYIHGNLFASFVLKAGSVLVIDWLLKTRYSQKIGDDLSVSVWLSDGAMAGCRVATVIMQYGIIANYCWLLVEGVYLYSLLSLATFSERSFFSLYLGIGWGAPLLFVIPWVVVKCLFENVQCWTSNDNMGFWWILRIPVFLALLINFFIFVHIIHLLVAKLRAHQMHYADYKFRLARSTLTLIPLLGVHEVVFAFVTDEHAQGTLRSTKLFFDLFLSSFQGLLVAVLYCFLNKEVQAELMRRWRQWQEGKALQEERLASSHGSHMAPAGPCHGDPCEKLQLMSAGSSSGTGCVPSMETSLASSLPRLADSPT
Chain of glucagon receptor (Rattus norvegicus, UniProt P30082) (P30082 27-485): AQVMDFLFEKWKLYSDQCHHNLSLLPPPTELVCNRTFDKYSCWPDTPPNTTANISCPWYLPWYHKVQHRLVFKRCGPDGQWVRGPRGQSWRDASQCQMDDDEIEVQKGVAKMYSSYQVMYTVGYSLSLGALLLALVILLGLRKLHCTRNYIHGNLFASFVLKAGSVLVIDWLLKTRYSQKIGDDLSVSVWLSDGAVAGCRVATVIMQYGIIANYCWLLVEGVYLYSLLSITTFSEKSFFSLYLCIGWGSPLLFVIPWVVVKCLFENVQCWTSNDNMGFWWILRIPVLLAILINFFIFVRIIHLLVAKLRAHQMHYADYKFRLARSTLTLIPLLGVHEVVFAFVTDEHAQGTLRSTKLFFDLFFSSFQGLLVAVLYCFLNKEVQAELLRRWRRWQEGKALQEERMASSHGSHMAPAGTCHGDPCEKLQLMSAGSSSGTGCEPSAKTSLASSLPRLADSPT

On to `Cc1cc(C)c(C)c(COc2ccc(-c3ccoc3C(=O)NNC(=O)c3ccc(O)c(C#N)c3)cc2)c1C` [Example 15, 3-[4-(2,3,5,6-tetramethylbenzyloxy)phenyl]-2-furancarboxylic acid 2-(3-cyano-4-hydroxybenzoyl)hydrazide], for which the IC50 at glucagon receptor [1] stood at 27 nM; at glucagon receptor [2], 170 nM.

Consider `N#Cc1cc(C(=O)NNC(=O)c2occc2-c2ccc(Oc3ccccc3)cc2)ccc1O` [Example 16, 3-(4-phenoxyphenyl)-2-furancarboxylic acid 2-(3-cyano-4-hydroxybenzoyl)hydrazide], for which the results for the IC50 at glucagon receptor [1] and at glucagon receptor [2] were 87 nM and 180 nM, respectively.

With `N#Cc1cc(C(=O)NNC(=O)c2occ(COC(=O)NCCc3ccccc3)c2-c2ccccc2)ccc1O` [Example 54, 4-(Phenethylaminocarbonyloxymethyl)-3-phenyl-2-furancarboxylic acid 2-(3-cyano-4-hydroxybenzoyl)hydrazide], the values for the concentration for half-maximal inhibition (IC50) at glucagon receptor [1] and on glucagon receptor [2] were 150 nM and 380 nM, respectively.

Consider `Cc1cc(C)c(C)c(COc2cccc(-c3c(-c4ccccc4)coc3C(=O)NNC(=O)c3ccc(O)c([N+](=O)[O-])c3)c2)c1C` [Example 100, 4-phenyl-3-[3-(2,3,5,6-tetramethylbenzyloxy)phenyl]-2-furancarboxylic acid 2-(4-hydroxy-3-nitrobenzoyl)hydrazide], for which the values for the IC50 on glucagon receptor [1] and at glucagon receptor [2] were 5.8 nM and 9.1 nM, respectively.

Consider `O=C(NNC(=O)c1occc1-c1cccc(OCc2ccccc2)c1)c1ccc(O)c([N+](=O)[O-])c1` [Example 101, 3-(3-benzyloxyphenyl)-2-furancarboxylic acid 2-(4-hydroxy-3-nitrobenzoyl)hydrazide], for which the half-inhibitory concentration (IC50) at glucagon receptor [1] is 33 nM; on glucagon receptor [2] it was 28 nM.

For `N#Cc1cc(C(=O)NNC(=O)c2occc2-c2cccs2)ccc1O` [Example 60, 3-(2-thienyl)-2-furancarboxylic acid 2-(3-cyano-4-hydroxybenzoyl)hydrazide], the IC50 at glucagon receptor [1] stood at 120 nM; on glucagon receptor [2], 160 nM.

Consider `CCCOc1ccccc1-c1ccoc1C(=O)NNC(=O)c1ccc(O)c(C#N)c1` [Example 11, 3-(2-propoxyphenyl)-2-furancarboxylic acid 2-(3-cyano-4-hydroxybenzoyl)hydrazide], for which the IC50 at glucagon receptor [1] worked out at 140 nM; on glucagon receptor [2] it was 450 nM.

Consider `Cc1cc(C)c(C)c(COc2cccc(-c3ccoc3C(=O)NNC(=O)c3ccc(O)c([N+](=O)[O-])c3)c2)c1C` [Example 20, 3-[3-(2,3,5,6-tetramethylbenzyloxy)phenyl]-2-furancarboxylic acid 2-(4-hydroxy-3-nitrobenzoyl)hydrazide], for which the IC50 at glucagon receptor [1] was 9.2 nM; on glucagon receptor [2], 24 nM.

Take `N#Cc1cc(C(=O)NNC(=O)c2occc2-c2cccc(Oc3ccccc3)c2)ccc1O` [Example 2, 3-(3-phenoxyphenyl)-2-furancarboxylic acid 2-(3-cyano-4-hydroxybenzoyl)hydrazide]: the half-inhibitory concentration (IC50) at glucagon receptor [1] came out at 330 nM; at glucagon receptor [2], 140 nM.

`N#Cc1cc(C(=O)NNC(=O)c2occc2-c2cccc(OCc3ccncc3)c2)ccc1O` [Example 102, 3-[3-(4-pyridylmethyloxy)phenyl]-2-furancarboxylic acid 2-(3-cyano-4-hydroxybenzoyl)hydrazide]: the half-inhibitory concentration (IC50) was 95 nM at glucagon receptor [1] and 93 nM at glucagon receptor [2].

Consider `N#Cc1cc(C(=O)NNC(=O)c2occc2-c2ccccc2OCCc2ccccc2)ccc1O` [Example 12, 3-(2-phenethyloxyphenyl)-2-furancarboxylic acid 2-(3-cyano-4-hydroxybenzoyl)hydrazide], for which the half-inhibitory concentration (IC50) stood at 85 nM on glucagon receptor [1] and 170 nM at glucagon receptor [2].

In the case of `N#Cc1cc(C(=O)NNC(=O)c2occ(-c3cccc(OCc4ccccc4)c3)c2-c2cccc(OCc3ccccc3)c2)ccc1O` [Example 115, 3,4-bis(3-benzyloxyphenyl)-2-furancarboxylic acid 2-(3-cyano-4-hydroxybenzoyl)hydrazide], the IC50 at glucagon receptor [1] stood at 54 nM; on glucagon receptor [2], 80 nM.

On to `N#Cc1cc(C(=O)NNC(=O)c2occc2-c2cccc(OCCc3ccccc3)c2)ccc1O` [Example 4, 3-(3-phenethyloxyphenyl)-2-furancarboxylic acid 2-(3-cyano-4-hydroxybenzoyl)hydrazide], for which the concentration for half-maximal inhibition (IC50) at glucagon receptor [1] amounted to 28 nM; at glucagon receptor [2] it was 130 nM.

For the molecule `O=C(NNC(=O)c1occ(-c2ccccc2)c1-c1ccccc1)c1ccc(O)c([N+](=O)[O-])c1` [Example 19, 3,4-diphenyl-2-furancarboxylic acid 2-(4-hydroxy-3-nitrobenzoyl)hydrazide], the figures for the IC50 at glucagon receptor [1] and on glucagon receptor [2] were 86 nM and 97 nM, respectively.

For the molecule `N#Cc1cc(C(=O)NNC(=O)c2occ(COCc3ccccc3)c2-c2ccccc2)ccc1O` [Example 56, 4-Benzyloxymethyl-3-phenyl-2-furancarboxylic acid 2-(3-cyano-4-hydroxybenzoyl)hydrazide], the half-maximal inhibitory concentration (IC50) worked out at 150 nM at glucagon receptor [1] and 220 nM on glucagon receptor [2].

Consider `CS(=O)(=O)Nc1ccccc1COc1cccc(-c2ccoc2C(=O)NNC(=O)c2ccc(O)c([N+](=O)[O-])c2)c1` [Example 138, 3-[3-(2-Methylsulfonylaminobenzyloxy)phenyl]-2-furancarboxylic acid 2-(4-hydroxy-3-nitrobenzoyl)hydrazide], for which the IC50 on glucagon receptor [1] came to 15 nM; on glucagon receptor [2] it was 23 nM.

As for `N#Cc1cc(C(=O)NNC(=O)c2occc2-c2ccccc2Cc2ccccc2)ccc1O` [Example 8, 3-(2-benzylphenyl)-2-furancarboxylic acid 2-(3-cyano-4-hydroxybenzoyl)hydrazide], the IC50 on glucagon receptor [1] was determined as 170 nM; on glucagon receptor [2], 310 nM.

Turning to `Cc1cc(C)c(C)c(COc2ccccc2-c2ccoc2C(=O)NNC(=O)c2ccc(O)c(C#N)c2)c1C` [Example 9, 3-[2-(2,3,5,6-tetramethylbenzyloxy)phenyl]-2-furancarboxylic acid 2-(3-cyano-4-hydroxybenzoyl)hydrazide], the figures for the half-maximal inhibitory concentration (IC50) at glucagon receptor [1] and at glucagon receptor [2] were 210 nM and 75 nM, respectively.

On to `N#Cc1cc(C(=O)NNC(=O)c2occ(C=CCCc3ccccc3)c2-c2ccccc2)ccc1O` [Example 59, 3-Phenyl-4-(4-phenyl-1-butenyl)-2-furancarboxylic acid 2-(3-cyano-4-hydroxybenzoyl)hydrazide], for which the values for the half-inhibitory concentration (IC50) on glucagon receptor [1] and on glucagon receptor [2] were 35 nM and 84 nM, respectively.

Regarding `Cc1cc(C)c(C)c(COc2cccc(-c3ccoc3C(=O)NNC(=O)c3ccc(O)c(C#N)c3)c2)c1C` [Example 1, 3-[3-(2,3,5,6-tetramethylbenzyloxy)phenyl]-2-furancarboxylic acid 2-(3-cyano-4-hydroxybenzoyl)hydrazide], the IC50 is 21 nM at glucagon receptor [1] and 99 nM on glucagon receptor [2].

Consider `N#Cc1cc(C(=O)NNC(=O)c2occc2-c2cccc(OCC(O)c3ccccc3)c2)ccc1O` (centres unmarked) [Example 108, 3-[3-(2-Hydroxy-2-phenylethoxy)phenyl]-2-furancarboxylic acid 2-(3-cyano-4-hydroxybenzoyl)hydrazide], for which the 50% inhibitory concentration (IC50) was 110 nM at glucagon receptor [1] and 310 nM on glucagon receptor [2].

As for `CC(C)Oc1ccccc1-c1ccoc1C(=O)NNC(=O)c1ccc(O)c(C#N)c1` [Example 10, 3-(2-isopropoxyphenyl)-2-furancarboxylic acid 2-(3-cyano-4-hydroxybenzoyl)hydrazide], the figures for the IC50 on glucagon receptor [1] and on glucagon receptor [2] were 180 nM and 230 nM, respectively.

Regarding `N#Cc1cc(C(=O)NNC(=O)c2occc2-c2ccc(OCc3ccccc3)cc2)ccc1O` [Example 17, 3-(4-benzyloxyphenyl)-2-furancarboxylic acid 2-(3-cyano-4-hydroxybenzoyl)hydrazide], the IC50 at glucagon receptor [1] stood at 99 nM; on glucagon receptor [2] it was 160 nM.

As for `N#Cc1cc(C(=O)NNC(=O)c2occc2-c2ccccc2Oc2ccccc2)ccc1O` [Example 13, 3-(2-phenoxyphenyl)-2-furancarboxylic acid 2-(3-cyano-4-hydroxybenzoyl)hydrazide], the values for the IC50 at glucagon receptor [1] and at glucagon receptor [2] were 190 nM and 180 nM, respectively.

For the molecule `N#Cc1cc(C(=O)NNC(=O)c2occc2-c2ccccc2OCc2ccccc2)ccc1O` [Example 5, 3-(2-benzyloxyphenyl)-2-furancarboxylic acid 2-(3-cyano-4-hydroxybenzoyl)hydrazide], the 50% inhibitory concentration (IC50) at glucagon receptor [1] came out at 200 nM; on glucagon receptor [2], 130 nM.

For the molecule `Cc1cc(C)c(C)c(COc2cccc(-c3coc(C(=O)NNC(=O)c4ccc(O)c(C#N)c4)c3-c3ccccc3)c2)c1C` [Example 99, 3-phenyl-4-[3-(2,3,5,6-tetramethylbenzyloxy)phenyl]-2-furancarboxylic acid 2-(3-cyano-4-hydroxybenzoyl)hydrazide], the values for the half-inhibitory concentration (IC50) at glucagon receptor [1] and at glucagon receptor [2] were 3.4 nM and 13 nM, respectively.

Turning to `O=C(NNC(=O)c1occ(-c2ccccc2)c1-c1ccccc1)c1ccc(O)c(C(F)(F)F)c1` [Example 43, 3,4-diphenyl-2-furancarboxylic acid 2-(4-hydroxy-3-trifluoromethylbenzoyl)hydrazide], the IC50 on glucagon receptor [1] was determined as 160 nM; on glucagon receptor [2], 390 nM.

For the molecule `N#Cc1cc(C(=O)NNC(=O)c2occ(COC(=O)Nc3ccccc3)c2-c2ccccc2)ccc1O` [Example 53, 4-(phenylaminocarbonyloxymethyl)-3-phenyl-2-furancarboxylic acid 2-(3-cyano-4-hydroxybenzoyl)hydrazide], the half-maximal inhibitory concentration (IC50) came out at 75 nM on glucagon receptor [1] and 240 nM on glucagon receptor [2].
